Measurements published in US20070213402A1, “Compounds which interact with the thyroid hormone receptor for the treatment of fibrotic disease” (priority 1998, published 2007).

Legend:
collagenase I promoter [1] = assay: Experiment 1: collagenase I promoter (-73/+63)-luciferase in CV1 cells transfected with pSG5ARF (androgen receptor); format: cell-based, African Green Monkey; conditions: for % control (AR): Blank = 100
Excerpt: (§1) Two plasmid constructs were introduced by standard calcium phosphate precipitation of DNA followed by glycerol shock (Ausubel F M, Brent R, Kingston D D, Moore J G et al Current protocols in molecular biology 1994 Greene Publishing Associates/Wiley-Interscience, New York, N.Y.) using a transformed African Green Monkey kidney cell line (CV1) (Schneikert J, Peterziel H, Defossez P-A, Klocker H, de Launoit Y and Cato A C B Androgen receptor-Ets protein interaction is a novel mechanism for steroid hormone-mediated down-modulation of matrix metalloproteinase expression, Journal of Biological Chemistry. Vol 271(39) (pp 23907-23913), 1996).
(§2) Accordingly, the following two plasmids were included into CV1 cells described above — • (a) Either of GR1 or pSG5ARF containing glucocorticoid or androgen receptor (AR) respectively, both at 2 ug per 5×10^5 cells, driven by the Rous sarcoma virus promoter, and • (b) a plasmid containing the −73/+63 portion of the collagenase I promoter linked to luciferase gene at 8 ug per 5×10^5 cells.
(§3) CPII was compound II above, clobuzarit.

[2] = system: collagenase (MMP-1) promoter; assay: Experiment 4.3: collagenase (MMP-1) promoter-luciferase in MCF-7 cells with transfected chick thyroid hormone receptor; format: cell-based, human; conditions: MCF-7 + chick thyroid hormone receptor; for % Control: Blank = 100
Protocol: These experiments were intended to identify the receptor through which compounds I might be acting to block collagenase promoter activity.
Transfection procedure hereinbefore described with CV1 cells was repeated using MCF-7 mammary breast cancer cells derived from pleural effusion from a breast cancer patient. Additionally, each experiment included transfection of a plasmid (at 8 ug per 5×10^5 cells) containing the −517/+63 section of the collagenase (MMP-1) promoter linked to the luciferase gene. TPA was used as above to stimulate activity of the collagenase promoter resulting in luciferase production. Compound II or 3,3,5-triiodo-L-thyronine (T3) was included (both at 10^−8M), the latter being a known ligand for the thyroid hormone receptor.

collagenase I promoter [3] = assay: Experiment 1: collagenase I promoter (-73/+63)-luciferase in CV1 cells transfected with GR1 (glucocorticoid receptor); format: cell-based, African Green Monkey; conditions: for % control (GR1): Blank = 100
Excerpt: as §1, §2, §3

c-jun = assay: Experiment 5: immunoblot of phosphorylated (serine 73) c-jun in rheumatoid fibroblasts; format: cell-based, human; conditions: 36 hours, 10 ng/ml TPA plus 5×10^-7M substance, compared to TPA alone (lane 1)
Protocol: Rheumatoid fibroblasts were cultured from synovium obtained from the knee joint of a patient with rheumatoid arthritis. Cells were cultured in monolayer with DMEM tissue culture medium (Gibco) with the inclusion of 5% v/v charcoal stripped serum in 75 cm^2 flasks. The cells were treated for 36 hours with the addition of 10 ng/ml TPA (phorbol ester) plus 5×10^−7M thyroid hormone, Compound II or Compound III. TPA and drugs were added at time zero and at 30 hours, the TPA addition ensured phosphorylation of c-jun.
After 36 hours, cells were lysed in phosphate buffered saline (PBS) containing protease inhibitors and 0.1% Triton-X-100, and then boiled for 5 minutes in non-reducing gel loading buffer. Samples of cell lysate corresponding to equal cell number were loaded onto a 12.5% SDS polyacrylamide gel, and electrophoresis using a Bio-Rad™, (Bio-Rad Laboratories, California USA) Mini Protean II cell was performed at approximately 100V for one hour.
Transfer of proteins to nitrocellulose membrane was performed using a Bio-Rad Mini Trans-Blot transfer cell.
Immunoblotting was performed using polyclonal rabbit anti-human phosphorylation specific (set 73) c-jun (cat. No 06659, Upstate Biotechnology), or MMP-1 (cat. No. RDI-MMP1Habr, Research Diagnostics) antibodies diluted 1:1000 in Tris buffered saline+3% fat free milk powder. […]

NFκB = assay: Experiment 3: NFκB-driven 3-EnhTK-Luc reporter in CV1 cells with GR1; format: cell-based, African Green Monkey; conditions: for % Control: Blank = 100
Excerpt: as §1
This experiment was intended to show the effect of compounds I on a mediator of the immune response, nuclear factor—κB (NF-κB).
The following two plasmids were included into CV1 cells described above— • (a) GR1 as described above at 2 ug per 5×10^5 cells, and • (b) a plasmid designated 3-EnhTK-Luc (at 0.5 ug per 5×10^5 cells) which contains a transcription site that is activated by NFκB.
The blank represented the inclusion of these two plasmids alone; the relatively high value was caused by (i) the high level of serum in the culture, and (ii) the associated stress that the cells underwent during the […]—both of which upregulate NFκB. There was also a related relatively low activation of TNF (at 4 ng/ml) above a serum containing blank in the experiment. TNF was tumour necrosis factor alpha.

collagenase I promoter [4] = assay: Experiment 1: collagenase I promoter (-73/+63)-luciferase in CV1 cells, no receptor plasmid (Empty); format: cell-based, African Green Monkey; conditions: for Raw counts (Empty) / % control (Empty): no receptor; for % control (Empty): Blank = 100
Excerpt: as §1, §2, §3

[5] = substance added alone, TPA 75 ng/ml
[6] = substance added with TPA 75 ng/ml, DHT 10^-7M
[7] = substance 10^-8M added with TPA
[8] = substance added with TPA 75 ng/ml, Dex 10^-7M
[9] = substance added alone, TNF 4 ng/ml
[10] = substance added with TNF 4 ng/ml
[11] = substance added with TPA 75 ng/ml

## CC(C)(OCc1ccc(-c2ccc(Cl)cc2)cc1)C(=O)O [Compound II, 1-[4-(4-chlorophenyl)benzyloxy]-1-methylpropionic acid]
Collagenase I promoter [1]; substance added alone
  % control (AR): 51%
Collagenase I promoter [1]; [5]
  Raw counts (AR): 1374 counts
Collagenase I promoter [1]; [6]
  Raw counts (AR): 5986 counts
  % control (AR): 224%
Collagenase I promoter [1]; TPA-stimulated, androgen receptor
  collagenase I activation, in words (AR): able to down regulate collagenase I activation
[2]; TPA
  stimulated collagenase transcription, in words: able to reduce stimulated collagenase transcription
[2]; [7]
  Raw Counts: 4414 counts
  % Control: 202%
[2]; substance added alone
  % Control: 72%
[2]; substance added alone, CPII 10^-8M
  Raw Counts: 1572 counts
Collagenase I promoter [3]; substance added alone
  % control (GR1): 48%
Collagenase I promoter [3]; [5]
  Raw counts (GR1): 6151 counts
Collagenase I promoter [3]; [8]
  Raw counts (GR1): 39968 counts
  % control (GR1): 311%
Collagenase I promoter [3]; TPA-stimulated, glucocorticoid receptor
  collagenase I activation, in words (GR1): able to down regulate collagenase I activation
c-jun
  amount of phosphorylation of c-jun (serine 73), band intensity: lower intensity
NFκB; [9]
  Raw Counts: 75812 counts
  % Control: 127%
NFκB; [10]
  Raw Counts: 135886 counts
  % Control: 228%
NFκB; versus background value
  upregulation of transcriptional activity by NFκB, in words: not able to upregulate transcriptional activity by NFκB
NFκB; with TNF
  inhibitory effect on NFκB transcription, in words: lack of inhibitory effect
Collagenase I promoter [4]; TPA stimulated and unstimulated, Empty
  collagenase I (MMP) promoter activity in the absence of either receptor, in words: able to reduce the level
Collagenase I promoter [4]; luciferase, substance added alone, TPA 75 ng/ml
  Raw counts (Empty): 1882 counts
Collagenase I promoter [4]; substance added alone
  % control (Empty): 78%
Collagenase I promoter [4]; [11]
  Raw counts (Empty): 2747 counts
  % control (Empty): 115%
